Assay results reported in publication PMC10987480, “Biological and mutational analyses of CXCR4–antagonist interactions and design of new antagonistic analogs” (Bioscience Reports, 2023).
Positions of bridges follow the written chain, without caps; N, C: chain ends. Non-standard residues stand in square brackets, D forms with d. Residues, ends and D or L forms follow the SMILES beside them. Chains are numbered I, II in the order given. 2Nal = N[C@@H](Cc1ccc2ccccc2c1)C(=O)O; Lys(iPr) = CC(C)NCCCC[C@H](N)C(=O)O

Columns and labels:
CXCR4 D97A = target: T1, CXCR4 D97A (Homo sapiens, UniProt P61073, D97A); experiment: Competitive binding to CXCR4 mutant D97A (12G5, CHO cells); details: TM2, class of reduction vs wild-type CXCR4, 12G5 competition, averages of at least three independent experiments
T1 construct: expressed in transfected cells
Experimental: (§1) Plasmid pcDNA3-CXCR4 and mutated pcDNA3-CXCR4 were extracted and transfected into CHO cells using Lipofectamine 2000 according to the manufacturer’s guidelines. The selective medium containing G418 at a concentration of 1.2 mg/ml was applied to isolate stably transfected cells. CHO cells expressing wild-type CXCR4 and mutant CXCR4 were obtained using fluorescence-activated cell sorting (FACS).
(§2) All of the CXCR4 mutants were prepared using PCR technology. Briefly, pairs of asymmetrical primers containing the desired amino acid mutations (Supplementary Tables S1 and S2), each complementary to opposite strands of the pcDNA3–CXCR4, were designed for amplification by Q5® High-Fidelity DNA polymerase and the generation of mutated constructs. The methylated pcDNA3–CXCR4 templates were digested by DpnI. The mutated pcDNA3–CXCR4 was transformed into competent E. coli TOP10 for long-term storage and amplification.
(§3) The procedure for the CXCR4 competitive binding experiments was published previously. Briefly, CXCR4 antibody 12G5 (250 ng/ml) was incubated with 5 × 10^5 cells and varying concentrations of unlabeled compounds in a final volume of 100 μl of assay buffer (PBS with 0.5% BSA and 0.05% NaN3) in 96-well plates for 40 min on ice, after being washed with assay buffer once. The cells were incubated with FITC-conjugated second antibody IgG for 30 min on ice, then washed with assay buffer three times. The fluorescence intensity was measured for excitation at 485 nm and emission at 535 nm using multimode plate reader (PerkinElmer). The IC50 values were calculated using graphpad Prism 7. Experiments were performed at least three times.

CXCR4 V112A = target: T2, CXCR4 V112A (Homo sapiens, UniProt P61073, V112A); experiment: Competitive binding to CXCR4 mutant V112A (12G5, CHO cells); details: TM3, class of reduction vs wild-type CXCR4, 12G5 competition, averages of at least three independent experiments
T2 construct: expressed in transfected cells
Experimental: as §1, §2, §3

CXCR4 H113A = target: T3, CXCR4 H113A (Homo sapiens, UniProt P61073, H113A); experiment: Competitive binding to CXCR4 mutant H113A (12G5, CHO cells); details: TM3, class of reduction vs wild-type CXCR4, 12G5 competition, averages of at least three independent experiments
T3 construct: expressed in transfected cells
Experimental: as §1, §2, §3

CXCR4 W161A = target: T4, CXCR4 W161A (Homo sapiens, UniProt P61073, W161A); experiment: Competitive binding to CXCR4 mutant W161A (12G5, CHO cells); details: TM4, class of reduction vs wild-type CXCR4, 12G5 competition, averages of at least three independent experiments
T4 construct: expressed in transfected cells
Experimental: as §1, §2, §3

CXCR4 D193A = target: T5, CXCR4 D193A (Homo sapiens, UniProt P61073, D193A); experiment: Competitive binding to CXCR4 mutant D193A (12G5, CHO cells); details: TM4, class of reduction vs wild-type CXCR4, 12G5 competition, averages of at least three independent experiments
T5 construct: expressed in transfected cells
Experimental: as §1, §2, §3

CXCR4 W195A = target: T6, CXCR4 W195A (Homo sapiens, UniProt P61073, W195A); experiment: Competitive binding to CXCR4 mutant W195A (12G5, CHO cells); details: TM4, class of reduction vs wild-type CXCR4, 12G5 competition, averages of at least three independent experiments
T6 construct: expressed in transfected cells
Experimental: as §1, §2, §3

CXCR4 H203A = target: T7, CXCR4 H203A (Homo sapiens, UniProt P61073, H203A); experiment: Competitive binding to CXCR4 mutant H203A (12G5, CHO cells); details: TM5, class of reduction vs wild-type CXCR4, 12G5 competition, averages of at least three independent experiments
T7 construct: expressed in transfected cells
Experimental: as §1, §2, §3

CXCR4 W252A = target: T8, CXCR4 W252A (Homo sapiens, UniProt P61073, W252A); experiment: Competitive binding to CXCR4 mutant W252A (12G5, CHO cells); details: TM6, class of reduction vs wild-type CXCR4, 12G5 competition, averages of at least three independent experiments
T8 construct: expressed in transfected cells
Experimental: as §1, §2, §3

CXCR4 Y255A = target: T9, CXCR4 Y255A (Homo sapiens, UniProt P61073, Y255A); experiment: Competitive binding to CXCR4 mutant Y255A (12G5, CHO cells); details: TM6, class of reduction vs wild-type CXCR4, 12G5 competition, averages of at least three independent experiments
T9 construct: expressed in transfected cells
Experimental: as §1, §2, §3

CXCR4 Y256A = target: T10, CXCR4 Y256A (Homo sapiens, UniProt P61073, Y256A); experiment: Competitive binding to CXCR4 mutant Y256A (12G5, CHO cells); details: TM6, class of reduction vs wild-type CXCR4, 12G5 competition, averages of at least three independent experiments
T10 construct: expressed in transfected cells
Experimental: as §1, §2, §3

CXCR4 D262E = target: T11, CXCR4 D262E (Homo sapiens, UniProt P61073, D262E); experiment: Competitive binding to CXCR4 mutant D262E (12G5, CHO cells); details: TM6, class of reduction vs wild-type CXCR4, 12G5 competition, averages of at least three independent experiments
T11 construct: expressed in transfected cells
Experimental: as §1, §2, §3

CXCR4 H281A = target: T12, CXCR4 H281A (Homo sapiens, UniProt P61073, H281A); experiment: Competitive binding to CXCR4 mutant H281A (12G5, CHO cells); details: TM7, class of reduction vs wild-type CXCR4, 12G5 competition, averages of at least three independent experiments
T12 construct: expressed in transfected cells
Experimental: as §1, §2, §3

CXCR4 I284A = target: T13, CXCR4 I284A (Homo sapiens, UniProt P61073, I284A); experiment: Competitive binding to CXCR4 mutant I284A (12G5, CHO cells); details: TM7, class of reduction vs wild-type CXCR4, 12G5 competition, averages of at least three independent experiments
T13 construct: expressed in transfected cells
Experimental: as §1, §2, §3

CXCR4 [1] = target: T14, CXCR4 (Homo sapiens, UniProt P61073); experiment: SDF-1α-induced cell migration assay in SupT1 cells (transwell); assay type: cell-based; set-up: host or cells: SupT1 cells; details: 2 nM SDF-1α, 30 min pre-incubation, 3 h migration
Experimental: (§4) Figure 2 The inhibitory effect of the antagonists on SDF-1α-induced cell chemotaxis and calcium mobilization in SupT1 cells The antagonists and concentrations used were labeled in each lane. (A) The inhibition of cell migration by the noted antagonists. SupT1 cells pre-treated with or without CXCR4 antagonists were seeded in the upper well and cell migrated by 2 nM SDF-1α. Migrated cells without SDF-1α were used as a negative (0%) and migrated cell induced by SDF-1α as a positive control (100%). […] SupT1 cells were treated with or without CXCR4 antagonists and activated by 50 nM SDF-1α. To directly compare the inhibitory effect of the antagonists on calcium mobilization, the vehicle background and baseline were removed using GraphPad and Origin. The data were averages of at least three independent experiments.
SupT1 cells (2 × 10^6 cells per well in 75 μl) were collected and washed using assay buffer (RPMI 1640 supplemented with 0.5% BSA) and incubated with various concentrations of tested compounds for 30 min in the upper well of the transwell-96 well plates with 5.0 µm pore polycarbonate membrane insert (Corning, U.S.A.). Then, 200 μl assay buffer containing 2 nM SDF-1α was added to the lower well and cells were allowed to migrate for 3 h. Migrated cells were measured using celltiter-96 reagent.

CXCR4 [2] = target: T14, CXCR4; experiment: SDF-1α-induced calcium mobilization assay in SupT1 cells (Fluo-4); assay type: cell-based; set-up: host or cells: SupT1 cells; details: 50 nM SDF-1α
Experimental: as §4
SupT1 cells were collected and washed using HHBS buffer (Hanks’ Balanced Salt solution supplemented with 20 mM HEPES) and incubated with 1 mM probenecid (Energy Chemical, China) and 4 μM Fluo-4 (AAT bioquest, U.S.A.) for 37°C for 30 min with vortex every 5 min. After being washed with HHBS, cells were suspended in PBS at 2 × 10^6/ml and seeded 200 μl cells and various concentrations of compounds per well in 96-well plate. Following 50 nM SDF-1α was added to each well, the fluorescence intensity was measured (Ex/Em = 496/516 nm) using EnSpire® multimode plate reader (PerkinElmer, U.S.A.).

T12 sequence (P61073 whole entry H281A): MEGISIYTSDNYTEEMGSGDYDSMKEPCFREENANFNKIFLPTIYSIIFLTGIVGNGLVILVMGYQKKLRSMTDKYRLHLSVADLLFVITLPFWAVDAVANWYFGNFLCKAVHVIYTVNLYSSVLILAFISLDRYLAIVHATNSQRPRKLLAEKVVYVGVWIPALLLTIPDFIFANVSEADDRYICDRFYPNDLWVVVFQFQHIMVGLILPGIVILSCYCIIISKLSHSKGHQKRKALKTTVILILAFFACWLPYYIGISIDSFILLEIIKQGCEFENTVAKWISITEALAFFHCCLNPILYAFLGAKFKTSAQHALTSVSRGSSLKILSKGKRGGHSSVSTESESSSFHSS
T10 sequence (P61073 whole entry Y256A): as the sequence (P61073 whole entry H281A) above, with Y256A, A281H counted along it
T2 sequence (P61073 whole entry V112A): as the sequence (P61073 whole entry H281A) above, with V112A, A281H counted along it
T1 sequence (P61073 whole entry D97A): as the sequence (P61073 whole entry H281A) above, with D97A, A281H counted along it
T13 sequence (P61073 whole entry I284A): as the sequence (P61073 whole entry H281A) above, with A281H, I284A counted along it
T5 sequence (P61073 whole entry D193A): as the sequence (P61073 whole entry H281A) above, with D193A, A281H counted along it
T3 sequence (P61073 whole entry H113A): as the sequence (P61073 whole entry H281A) above, with H113A, A281H counted along it
T8 sequence (P61073 whole entry W252A): as the sequence (P61073 whole entry H281A) above, with W252A, A281H counted along it
T4 sequence (P61073 whole entry W161A): as the sequence (P61073 whole entry H281A) above, with W161A, A281H counted along it
T9 sequence (P61073 whole entry Y255A): as the sequence (P61073 whole entry H281A) above, with Y255A, A281H counted along it
T11 sequence (P61073 whole entry D262E): as the sequence (P61073 whole entry H281A) above, with D262E, A281H counted along it
T6 sequence (P61073 whole entry W195A): as the sequence (P61073 whole entry H281A) above, with W195A, A281H counted along it
T14 sequence (P61073 whole entry): as the sequence (P61073 whole entry H281A) above, with A281H counted along it
T7 sequence (P61073 whole entry H203A): as the sequence (P61073 whole entry H281A) above, with H203A, A281H counted along it

Row | inhibition at 0.2 µM (CXCR4 [1]; SUP-T1, at 200 nM) [%] | Inhibition of calcium mobilization (in words) (CXCR4 [2]; at 5 nM) | inhibition at 0.4 µM (CXCR4 [1]; SUP-T1, at 400 nM) [%] | Inhibition of calcium mobilization (in words) (CXCR4 [2]; single concentration (Figure 2B)) | SMILES | Competitive receptor binding activity, CXCR4 D97A (CXCR4 D97A) | Competitive receptor binding activity, CXCR4 V112A (CXCR4 V112A) | Competitive receptor binding activity, CXCR4 H113A (CXCR4 H113A) | Competitive receptor binding activity, CXCR4 W161A (CXCR4 W161A) | Competitive receptor binding activity, CXCR4 D193A (CXCR4 D193A) | Competitive receptor binding activity, CXCR4 W195A (CXCR4 W195A) | Competitive receptor binding activity, CXCR4 H203A (CXCR4 H203A) | Competitive receptor binding activity, CXCR4 W252A (CXCR4 W252A) | Competitive receptor binding activity, CXCR4 Y255A (CXCR4 Y255A) | Competitive receptor binding activity, CXCR4 Y256A (CXCR4 Y256A) | Competitive receptor binding activity, CXCR4 D262E (CXCR4 D262E) | Competitive receptor binding activity, CXCR4 H281A (CXCR4 H281A) | Competitive receptor binding activity, CXCR4 I284A (CXCR4 I284A) | inhibition at 4 µM (CXCR4 [1]; SUP-T1, at 4 μM) [%] | inhibition at 1 µM (CXCR4 [2]; SUP-T1, at 1 μM) [%]
1 | 61 | very weak inhibition |  |  | c1cc(CN2CCCNCCNCCCNCC2)ccc1CN1CCCNCCNCCCNCC1 [AMD3100] | ++ (10–29% reduction compared with wild-type CXCR4) | +++ | ++ (10–29% reduction compared with wild-type CXCR4) | +++ | ++ (10–29% reduction compared with wild-type CXCR4) | +++ | +++ | +++ | ++ (10–29% reduction compared with wild-type CXCR4) | +++ | + (30–60% reduction compared with wild-type CXCR4) | +++ | +++ |  | 
2 |  |  | 76 | significant inhibition | CC(C)NCCCC[C@H](NC(=O)[C@H]1CCC(=O)N[C@@H](Cc2ccccc2)C(=O)N[C@@H](Cc2ccc(O)cc2)C(=O)N[C@@H](CCCCNC(C)C)C(=O)N[C@H](CCCNC(=N)N)C(=O)N[C@@H](Cc2ccc3ccccc3c2)C(=O)NCC(=O)N1)C(N)=O [LY2510924] (FY[Lys(iPr)][dR][2Nal]G[dE][Lys(iPr)]-NH2; lactam N-7 (inferred)) | + (30–60% reduction compared with wild-type CXCR4) | ++ (10–29% reduction compared with wild-type CXCR4) | + (30–60% reduction compared with wild-type CXCR4) | ++ (10–29% reduction compared with wild-type CXCR4) | +++ | ++ (10–29% reduction compared with wild-type CXCR4) | + (30–60% reduction compared with wild-type CXCR4) | ++ (10–29% reduction compared with wild-type CXCR4) | ++ (10–29% reduction compared with wild-type CXCR4) | ++ (10–29% reduction compared with wild-type CXCR4) | ++ (10–29% reduction compared with wild-type CXCR4) | ++ (10–29% reduction compared with wild-type CXCR4) | ++ (10–29% reduction compared with wild-type CXCR4) |  | 
3 |  |  |  |  | CC(C)C[C@@H](N)C(=O)NCC(=O)N[C@H](C)C(=O)N[C@H](CO)C(=O)N[C@H](Cc1c[nH]c2ccccc12)C(=O)N[C@H](Cc1c[nH]cn1)C(=O)N[C@H](CCCNC(=N)N)C(=O)N1CCC[C@@H]1C(=O)N[C@H](CC(=O)O)C(=O)N[C@H](CCCCN)C(=O)NCCCC[C@@H](NC(=O)[C@H]1CCCN1C(=O)[C@@H](CC(C)C)NC(=O)[C@H]1CCCN1C(=O)[C@@H](CCCNC(=N)N)NC(=O)[C@@H](CCCCN)NC(=O)[C@@H](CCC(N)=O)NC(=O)[C@@H](Cc1ccc(O)cc1)NC(=O)CNC(=O)[C@@H](CC(C)C)NC(=O)[C@@H](CS)NC(=O)[C@@H](CS)NC(=O)[C@@H](CCCCN)NC(=O)[C@@H](CC(=O)O)NC(=O)[C@H]1CCCN1C(=O)[C@@H](CCCNC(=N)N)NC(=O)[C@@H](Cc1c[nH]cn1)NC(=O)[C@@H](Cc1c[nH]c2ccccc12)NC(=O)[C@@H](CO)NC(=O)[C@@H](C)NC(=O)CNC(=O)[C@H](N)CC(C)C)C(=O)O [HC4319] (I: H-[dL]G[dA][dS][dW][dH][dR][dP][dD][dK][dC][dC][dL]G[dY][dQ][dK][dR][dP][dL][dP][dK]-OH / II: H-[dL]G[dA][dS][dW][dH][dR][dP][dD][dK]; amide I:22-II:C; N-terminus and C-terminus assumed) | ++ (10–29% reduction compared with wild-type CXCR4) | +++ | ++ (10–29% reduction compared with wild-type CXCR4) | +++ | ++ (10–29% reduction compared with wild-type CXCR4) | ++ (10–29% reduction compared with wild-type CXCR4) | +++ | +++ | ++ (10–29% reduction compared with wild-type CXCR4) | +++ | ++ (10–29% reduction compared with wild-type CXCR4) | ++ (10–29% reduction compared with wild-type CXCR4) | +++ | 56 | 77
